Source: patent publication US11952362B2, “Compositions and methods for treating epigenetic disease” (The Regents of the University of California, priority 2018, dated 2024)

How the values were obtained:
[1] = target: T1, HDAC4 (Homo sapiens, UniProt P56524); assay: Fluorogenic HDAC4 activity assay; assay type: biochemical; conditions: fluorogenic assay kit, in words
T1 construct: purchased BPS Bioscience 50064
Procedure: To measure the effects of MJK-001, -004, -006 and -008 on HDAC4 & 9 activity fluorogenic HDAC9 (#50069) and HDAC4 (#50064) assay kits (BPS Bioscience) were used. Briefly, these assays consist of two steps; in the first one the HDAC fluorometric substrate containing an acetylated lysine side chain is incubated with purified HDAC9. In the second step, the deacetylation sensitizes the substrate so subsequent treatment with the lysine developer produces a fluorophore that was measured by a fluorescence reader.

[2] = tested on: UMUC9 bladder cancer cells; assay: Cell viability assay (CellTiter Glo), UMUC9; assay type: cell-based; conditions: for IC50: UM-UC-9
Procedure: Pancreatic cancer cell lines (MIA PaCa-2 and CAPAN-2) were purchased from ATCC. MIA PaCa-2 were grown in DMEM and CAPAN-2 in McCoy's 5A (Gibco). Colon cancer cell lines (SW480 and HT-29) were purchased from ATCC. SW480 were grown in Leibovitz's L-15 (ATCC) and HT-29 in McCoy's 5A (Gibco). Lung cancer cell lines (NCI 460 and NCI 1975) were purchased from ATCC and grown in RPMI 1640 (Gibco). PC-3 prostate cancer cell line was purchased from ATCC and grown in F-12K (ATCC). Bladder cancer cell line 5637 was purchased from ATCC and RT-112 was purchased from Sigma-Aldrich and was grown in RPMI 1640 (Gibco). Bladder cancer cell lines, UMUC-9, UMUC-15 and UMUC-7 were purchased from MD Anderson and were grown in EMEM (ATCC). Bladder cancer cell line J82 was purchased from ATCC and was grown in EMEM (ATCC). SW1710 and EJ28 bladder cancer cell lines were purchased from DSMZ and were grown in DMEM (ATCC) and RPMI-1640 (Gibco), respectively. Bladder cancer cell line T24 was purchased from ATCC and grown in McCoy's 5A (Gibco). Bladder cancer cell line BC-3C was purchased from DSMZ and was grown in McCoy's 5A (Gibco). All media were supplemented with 10% FBS (Gemini Bioproducts) and 1% Antibiotic-Antimycotic (Gibco). In the case of MIA PaCa-2, medium was also supplemented with 2.5% horse serum (Gibco). NCM356 colon epithelial cell lines were growth in M3:10 (INCELL, San Antonio, Tex.). A CMV-driven-HDAC9 vector was used to overexpress HDAC9 levels in NCM356 cells. IL1B and TNFA mRNA levels were measured by qPCR analysis as described previously (Fang K et al. Am J Pathol, 188(3):586-99, 2018).
(§1) 1.8×10^3 cells/well were plated in quadruplicates in 96-well plate and treated with exogenously added MJK analogues 6 hours after plating. For the experiments performed to calculate the IC50s of HDAC9 analogues, a secondary treatment of exogenously added MJK analogues was performed 2 days later. Cell growth was assessed 1, 3, 5 or 7 days after plating using the CellTiter Glo Luminescence Cell Viability Assay (Promega) according to manufacturer's protocol. For the experiments where the effect of combinatorial treatment of MJK-004 analogues with chemotherapy was assessed, treatment of cells with gemcitabine (10 nM) or 5-fluouracil (2000 nM) was performed one day after MJK-004 treatment and the cells were further treated with exogenously added MJK analogues 2 days later. Cell growth was assessed 3, 4, 5 or 6 days after plating using the CellTiter Glo Luminescence Cell Viability Assay (Promega) according to manufacturer's protocol. Data are expressed as mean […] (arbitrary units)±S.D.
(§2) Cell Viability Assays were employed to determine the concentration of MJK analogues where the response is reduced by half. For each treatment of cancer cells, 1, 2, 5, 10 and 20 μM of MJK analogues were applied. GraphPad Prism 7 software was used to fit dose response curves. Relative Luciferase Activity Units were plotted against the log values of the doses used and the nonlinear regression model was used for data analysis.

[3] = tested on: bladder cancer cells; assay: Bladder cancer cell growth, overall finding; assay type: cell-based; conditions: in words
Procedure: as §1, §2
MJK-004 efficacy on bladder cancer cell growth and colony-formation ability: Based on the above findings, the MJK compounds were examined to determine if they had substantially better efficacy than MJK-001 to suppress bladder cancer cell growth by calculating the IC50 values.
The synthesized series of MJK chemical compounds have increased specificity for HDAC9 or HDAC4 isoforms. […] On the other hand, MJK-004 is highly efficient in blocking bladder cancer cell growth through regulation of HDAC4 isoform. MJK-006 and MJK-008 compounds have the potential to be developed as therapeutics for Crohn's Disease and other auto-immune diseases. […]

T1 sequence (P56524 whole entry): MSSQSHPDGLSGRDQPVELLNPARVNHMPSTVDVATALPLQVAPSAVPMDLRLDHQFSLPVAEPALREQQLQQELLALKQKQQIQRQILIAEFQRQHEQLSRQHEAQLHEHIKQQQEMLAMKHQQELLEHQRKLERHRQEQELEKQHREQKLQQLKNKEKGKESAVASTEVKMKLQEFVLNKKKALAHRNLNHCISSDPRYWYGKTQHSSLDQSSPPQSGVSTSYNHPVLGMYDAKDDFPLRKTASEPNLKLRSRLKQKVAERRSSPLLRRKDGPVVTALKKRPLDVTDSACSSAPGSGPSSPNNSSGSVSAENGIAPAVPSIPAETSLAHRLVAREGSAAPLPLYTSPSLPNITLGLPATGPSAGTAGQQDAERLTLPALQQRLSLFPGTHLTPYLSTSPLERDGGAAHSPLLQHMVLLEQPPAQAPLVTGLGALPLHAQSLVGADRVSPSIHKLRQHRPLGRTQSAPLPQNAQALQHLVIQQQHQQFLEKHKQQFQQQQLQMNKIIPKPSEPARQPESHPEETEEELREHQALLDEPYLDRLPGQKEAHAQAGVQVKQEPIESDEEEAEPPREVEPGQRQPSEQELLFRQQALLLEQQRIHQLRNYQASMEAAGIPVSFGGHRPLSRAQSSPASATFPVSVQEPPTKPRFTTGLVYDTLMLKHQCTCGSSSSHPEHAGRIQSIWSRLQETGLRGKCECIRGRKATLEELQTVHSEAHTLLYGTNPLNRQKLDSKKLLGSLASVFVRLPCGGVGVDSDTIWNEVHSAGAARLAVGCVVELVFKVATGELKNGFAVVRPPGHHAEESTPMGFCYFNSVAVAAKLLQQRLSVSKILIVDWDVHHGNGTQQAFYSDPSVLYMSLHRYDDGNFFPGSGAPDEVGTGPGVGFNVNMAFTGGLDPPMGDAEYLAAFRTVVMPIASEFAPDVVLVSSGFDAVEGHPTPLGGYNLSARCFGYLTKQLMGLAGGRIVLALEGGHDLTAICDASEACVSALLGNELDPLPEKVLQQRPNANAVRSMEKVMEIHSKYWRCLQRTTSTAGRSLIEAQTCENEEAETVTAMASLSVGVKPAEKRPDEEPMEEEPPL

| SMILES | HDAC4 activity / specificity [1] | IC50 (uM) values ([2]; UMUC9 cell growth) | effect on bladder cancer cell growth [3] | IC50 ([2]; UMUC9 cell growth) [µM] | cell growth, monotherapy ([2]; UMUC9, days 4 & 5) | cell growth, combination with gemcitabine ([2]; UMUC9, gemcitabine 10 nM, days 4 & 5) |
| --- | --- | --- | --- | --- | --- | --- |
| Cl.Cn1c(/C=C/C(=O)NO)ccc1/C=C/C(=O)c1cccnc1 [MJK008, (E)-N-Hydroxy-3-(1-methyl-5-((E)-3-oxo-3-(pyridin-3-yl)prop-1-en-1-yl)-1H-pyrrol-2-yl)ac-rylamide hydrochloride] | decreased HDAC4 specificity | ns | did not have any effect |  |  |  |
| Cn1c(/C=C/C(=O)NO)ccc1/C=C/C(=O)c1cccs1 [MJK004, (E)-N-hydroxy-3-(1-methyl-5-((E)-3-oxo-3-(thiophen-2-yl)prop-1-en-1-yl)-1H-pyrrol-2-yl)acrylamide] | high specificity for HDAC4 |  | highest efficacy | 3.97 | suppressed bladder cancer growth in both cell lines as a monotherapy | increased gemcitabine's efficacy |
| Cn1c(/C=C/C(=O)NO)ccc1/C=C/C(=O)c1cccnc1 [MJK006, (E)-N-hydroxy-3-(1-methyl-5-((E)-3-oxo-3-(pyridin-3-yl)prop-1-en-1-yl)-1H-pyrrol-2-yl)acrylamide] | decreased HDAC4 specificity |  | did not have any effect | 19.8 |  |  |
| Cn1c(/C=C/C(=O)NO)ccc1/C=C/C(=O)c1cccc(F)c1 [MJK001, (E)-3-(5-((E)-3-(3-Fluorophenyl)-3-oxoprop-1-en-1-yl)-1-methyl-1H-pyrrol-2-yl)-N-hydro-xyacrylamide] | partially blocks |  |  | 7.1 |  |  |
